Assays:
Panc-1 cells [1] = experiment: Panc-1 cell growth (MTS); format: cell-based
Experimental: Panc-1 pancreatic adenocarcinoma cells (1.0×10^3 cells/well) were cultured in the presence or absence of S100P (100 nM) and with or without cromolyn (100 μM), and cell proliferation was analyzed at 24, 48, and 72 hours. Means and 95% confidence intervals of three independent experiments performed in triplicate are shown. *, P=0.001, S100P alone versus S100P+cromolyn.
Panc-1 cells were plated at 1.0×10^3 cells/well and treated with platelet-derived growth factor (10 ng/mL) with or without cromolyn (100 μM), and cell proliferation was analyzed after 48 hours. Means and 95% confidence intervals of three independent experiments performed in triplicate are shown. *, P=0.004 PDGF and P=0.022 cromolyn+PDGF versus control.
Growth of Panc-1 and BxPC3 pancreatic adenocarcinoma cells was analyzed using MTS reagent (Promega, Madison, Wis.) according to the manufacturer's directions. Purified S100P (100 nM final concentration) with or without cromolyn (100 μM final concentration) was added to Panc-1 cells. Only cromolyn (0-100 μM) was added to BxPC-3 cells, which express endogenous S100P. For both cell models, 1.0×10^3 cells/well were plated in 96-well culture dishes. Cells were treated with S100P, PDGF, or cromolyn, or a combination, followed immediately by treatment with either S100P or PDGF. MTS (20 μL per well) was added to cells at various times, and the mixture was incubated for 1 hour at 37° C. Samples were then read at 490 nm (as O.D. units) on a uQuant-Microplate Spectrophotometer (Bio-Tek Services Inc., Richmond, Va.). The assay was performed three times in triplicate.

S100P binding with RAGE = molecular target: T1, S100P binding with RAGE (Homo sapiens, UniProt P25815); experiment: S100P binding with RAGE ELISA (sRAGE coated plate)
T1 construct: full-length human S100P cDNA (NM_005980) was cloned into the pTrcHis2 vector; His tag
T1 sequence (P25815 1-95): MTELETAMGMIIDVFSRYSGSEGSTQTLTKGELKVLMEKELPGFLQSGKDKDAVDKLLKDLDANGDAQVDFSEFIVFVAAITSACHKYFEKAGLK
Experimental: After removing un-bound S100P by washing with detergent, the bound S100P and RAGE complex was quantified by adding HRP labeled antibody against S100P. *, P=0.04 C5 μM versus cromolyn 5 μM. Two-tailed two-sample (unpaired) Student's t-tests were used to determine P values.

[2] = tested on: NFκB activity in MPanc-96 cells; experiment: S100P stimulated NFκB luciferase reporter, MPanc-96; format: cell-based, human
Experimental: MPanc-96 pancreatic cancer cell lines stably expressing an NFκB luciferase reporter were examined for the effects of S100P, cromolyn and C5. Cells were plated at 5.0×10^3 cells/well, treated for 5 hours with 100 nM of S100P, with or without cromolyn and C5 (1 μM), and activity of a luciferase gene driven by the NFkB promoter was analyzed. P=0.05 C5 versus cromolyn. Two-tailed two-sample (unpaired) Student's t-tests were used to determine P values.

BxPC-3 cells = experiment: BxPC-3 cell viability, 72 hours; format: cell-based
Experimental: BxPC-3 cells were plated at 1.0×10^3 cells/well and treated with 0 μM, 1 μM, 10 μM, and 100 μM of cromolyn or C5 alone or in combination with gemcitabine 1 μM and cell viability was analyzed after 72 hours. Two-tailed two-sample (unpaired) Student's t-tests were used to determine P values. […] BxPC-3 cells were plated at 1.0×10^3 cells/well and treated with either 100 μM of cromolyn or 1 μM C5 alone or in combination with gemcitabine (1 μM) and cell viability was analyzed after 72 hours.

MPanc-96 cells = experiment: MPanc-96 cell apoptosis by flow cytometry, 72 hours; format: cell-based, human; conditions: 100 and 1000 nM, with or without gemcitabine 10 μM
Experimental: FIG. 11 compares the effects of cromolyn and C5 alone and in combination with gemcitabine on MPanc-96 cell apoptosis. MPanc-96 cells were treated with cromolyn or C5 (100 and 1000 nM) with (+) or without (−) gemcitabine (10 μM). Apoptosis was analyzed after 72 hours by flow cytometry.

S100B with RAGE = S100B with RAGE (Homo sapiens, UniProt P04271); experiment: S100B binding with RAGE ELISA (sRAGE coated plate)
Sequence of S100B with RAGE (P04271 whole entry, species assumed): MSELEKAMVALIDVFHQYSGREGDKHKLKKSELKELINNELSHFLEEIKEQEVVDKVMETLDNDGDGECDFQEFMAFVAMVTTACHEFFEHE
Description: After removing un-bound S100B by washing with detergent, bound S100B and RAGE complex was quantified by adding HRP labeled antibody against S100B.

Panc-1 cells [3] = experiment: Matrigel invasion assay, Panc-1; format: cell-based; conditions: S100P 100 nM alone, 24 hours
Experimental: FIGS. 2A-2D show the effect of cromolyn on pancreatic cancer cell invasion. Panc-1 and BxPC-3 cells were plated in Bio-coat matrigel and control chambers and cultured in serum-free culture media. After 24 hours non-invaded cells in the upper chamber were removed, and cells that invaded onto the lower surface of the membrane were counted from five adjacent fields. […] Data are expressed as the percent invasion through the matrigel matrix and membrane relative to migration through the control membrane. Means and 95% confidence intervals from three independent experiments performed in triplicate are shown. Two-tailed two-sample (unpaired) Student's t-tests were used to determine P values.
Panc-1 and BxPC-3 cells were seeded in BIOCOAT matrigel invasion chambers and in control chambers without matrigel (Becton-Dickinson, Bedford, Mass.) according to the manufacturer's protocol. Panc-1 cells were seeded with S100P (100 nM) with or without cromolyn (100 μM), and BxPC-3 cells were seeded with or without cromolyn (1-100 μM). Briefly, 2.0×10^5 cells in 300 μL top solution (serum-free media) were added to each chamber and allowed to invade matrigel for 24 hours at 37° C. in a 5% CO2 atmosphere. The non-invading cells on the upper surface of membrane were removed from the chambers with a cotton swab, and the invading cells on the lower surface of the membrane were fixed and stained using a Diff-Quick stain kit (Becton Dickinson, Bedford, Mass.). After two washes with water, the chambers were allowed to air dry. The numbers of invading cells in five adjacent microscope fields per membrane were counted at 20× magnification to obtain the average number of cells per field. Data are expressed as the percent invasion through the matrigel matrix and membrane relative to the migration through the control membrane. The assays were performed three times.

[4] = tested on: NFκB promoter activity in Panc-1 cells; experiment: Luciferase assay for NFκB activity, Panc-1; format: cell-based; conditions: for NFκB promoter activity in Panc-1 cells, mean: 5 hours, 0 nM mean=3358
Experimental: FIGS. 3A, 3B, and 3C show the effect of cromolyn on S100P stimulated NFκB promoter activity in pancreatic cancer cells in vitro and in vivo. Panc-1 and BxPC-3 pancreatic cancer cell lines stably expressing an NFκB luciferase reporter were examined for the effects of S100P and cromolyn. […] Means and 95% confidence intervals are shown for three independent experiments performed in triplicate. *, P=0.022, †, P<0.001, and ‡, P<0.001 versus control; #, P=0.005 versus 100 nM S100P alone. […] Means and 95% confidence intervals are shown for three independent experiments performed in triplicate. *, P=0.003, †, P<0.001 versus control. […] After 1 week, tumor growth was assessed and NFκB activity was analyzed using an IVIS system (Xenogen Corp., Alameda, Calif.) after injecting mice with D-luciferin (150 mg per kg body weight) (0 time point). The mice were treated with cromolyn (5 mg per kg body weight by intraperitoneal injection), and NFκB luciferase activity was analyzed again at 24 and 48 hours. *, P=0.005 versus control. Means and 95% confidence intervals are shown for two independent experiments (n=4 mice per group). Two-tailed two-sample (unpaired for in vitro and paired for in vivo studies) Student's t-tests were used to determine P values.
To study pancreatic cancer cell NFκB activity, a lentivirus NFκB luciferase reporter gene construct was developed. The NFκB luciferase reporter gene was excised and isolated from the pNF-κB-Luc Vector (Clonetec, Mountain View, Calif.) and cloned into the lentiviral vector FG9 (Gift from Dr. Xiao-Feng Qin, Dept. of Immunology, M.D. Anderson Cancer Center replacing the CMV/LTR and UBiC promoters, to form Lenti-NFκB-Luc. Lentiviral NFκB vector were co-transfected with packaging constructs pRSVREV, pMDLg/pRRE, and the VSV-G expression plasmid pHCMVG, and lentivirus was produced in 293T cells by the calcium transfection method, as previously described in Qin, et al., Inhibiting HIV-1 infection in human T cells by lentiviral-mediated delivery of small interfering RNA against CCR5; Proc. Natl. Acad. Sci. U.S.A. 2003 Jan. 7; 100(1):183-8. […] Functional validation of NFκB reporter activity was conducted in vitro using TNF-α (20 ng/mL, Sigma, St. Louis, Mo.) as a positive control.
BxPC-3 and Panc-1 cells stably expressing a Lenti-NFkB-luc reporter construct were treated with S100P, cromolyn, or the combination for 5 hours. D-luciferin (150 μg/mL) was added to the cells, and luciferase activity was measured using an IVIS bioluminescence system (Xenogen Co. Alameda, Calif.). Each experiment was conducted three times in triplicate.

For PDGF, the “Panc-1 cell growth, difference control versus PDGF” value (Panc-1 cells [1]; PDGF 10 ng/mL, 48 hours) was 0.2 MTS units and the “Panc-1 cell growth, mean” value (Panc-1 cells [1]; PDGF 10 ng/mL, 48 hours, control mean=0.5) was 0.7 MTS units.

O=C([O-])c1cc(=O)c2c(OCCCCCOc3cccc4oc(C(=O)[O-])cc(=O)c34)cccc2o1.[Na+].[Na+] [C5, disodium 1,5-bis(2-carboxychromon-5-yloxy) pentane] was tested, and the “concentration achieving the same level of S100P inhibition” value (S100P binding with RAGE) was 100 nM, the “interaction between S100P with RAGE” value (S100P binding with RAGE) was “blocked” and the “potency relative to cromolyn in blocking S100P-RAGE interaction” value (S100P binding with RAGE) was “more potent than cromolyn”. The “NFκB activity in pancreatic cancer cells in vitro” value ([2]; S100P 100 nM, compound 1 μM, 5 hours) was “inhibit NFκB activity”, the “reduction of S100P induced NFκB activity relative to cromolyn” value ([2]; same dose (1 μM)) was “much better than cromolyn” and the BxPC-3 cell viability (BxPC-3 cells; 1-100 μM, alone or with gemcitabine 1 μM) was “inhibit BxPC-3 cell viability”. For the same molecule, the “inhibition of BxPC-3 cell viability relative to cromolyn” value (BxPC-3 cells; alone at 10 or 100 μM, with gemcitabine at 1-100 μM) was “more potent and more efficacious than cromolyn”, the “concentration giving the same level of cell reduction in combination with gemcitabine” value (BxPC-3 cells; with gemcitabine 1 μM) was 1 µM and the MPanc-96 cell viability (MPanc-96 cells) was “inhibit MPanc-96 cell viability”. For the same molecule, the “interaction of S100B with RAGE” value (S100B with RAGE) was “inhibit the interaction of S100B with RAGE”.

B1: S100P: purified His-tagged full-length human S100P protein, added exogenously as RAGE ligand (protein, UniProt P25815 1-95, looked up)
chain: MTELETAMGMIIDVFSRYSGSEGSTQTLTKGELKVLMEKELPGFLQSGKDKDAVDKLLKDLDANGDAQVDFSEFIVFVAAITSACHKYFEKAGLK
modifications: full-length His tag
notes: purified His-tagged full-length human S100P protein, added exogenously as RAGE ligand
B1 was tested, and the “Panc-1 cell proliferation, mean” value (Panc-1 cells [1]; S100P 100 nM alone) was 0.93 MTS units, the “Panc-1 cells invaded, mean” value (Panc-1 cells [3]) was 58.0% and the “NFκB promoter activity in Panc-1 cells, difference versus 0 nM” value ([4]; S100P 1 nM) was 3544 photons/sec. The “NFκB promoter activity in Panc-1 cells, mean” value (“NFκB promoter activity … mean” for short) ([4]; S100P 1 nM) was 6902 photons/sec, the “NFκB promoter activity in Panc-1 cells, difference versus 0 nM” value ([4]; S100P 10 nM) was 5400 photons/sec and the “NFκB promoter activity … mean” value ([4]; S100P 10 nM) was 8758 photons/sec. The “NFκB promoter activity in Panc-1 cells, difference versus 0 nM” value ([4]; S100P 100 nM) was 11100 photons/sec and the “NFκB promoter activity … mean” value ([4]; S100P 100 nM) was 14460 photons/sec.

Source: US8252807B2, “Methods of inhibiting the interaction between S100 and the receptor for advanced glycation end-products” (Board of Regents, The University of Texas System, priority 2007, dated 2012)
